Measurements reported in ChEMBL document CHEMBL5120836, “Discovery of novel 7,8-dihydropteridine-6(5H)-one-based DNA-PK inhibitors as potential anticancer agents via scaffold hopping strategy” (Eur J Med Chem, 2022).

Experiments:
MDA-MB-231 = test: Synergistic antiproliferative activity against human MDA-MB-231 cells assessed as combination index at 0.5 uM in presence of 0.1 uM doxorubicin by MTT assay; format: functional
[1] = Toxicity in BALB/c nude mouse xenografted with human HL-60 cells assessed as liver morphological alterations at 100 mg/kg, po qd for 16 days by Hematoxylin and Eosin staining based analysis; format: organism-based; conditions: in vivo, 384 h, time 16 day
MCF7 = test: Synergistic antiproliferative activity against human MCF7 cells assessed as combination index at 3.1 uM in presence of 0.1 uM doxorubicin by MTT assay; format: functional
HL-60 = test: Synergistic antiproliferative activity against human HL-60 cells assessed as combination index at 0.5 uM in presence of 0.1 uM doxorubicin by MTT assay; format: functional

In the case of Cc1cc2ncnn2cc1Nc1ncc2c(n1)N(C1CCOCC1)CC(=O)N2C, the CI (MDA-MB-231) is reported as 0.3617, the Activity [1] is reported as “Non-Toxic” and the CI (MCF7) is reported as 0.05143. It also gave a CI (HL-60) of 0.00341.
